Measured values published in paper PMC5209733, “U24 from Roseolovirus interacts strongly with Nedd4 WW Domains” (Scientific Reports, 2017).
No end group written: not given here.

Columns and labels:
Format in all cases: binding
[1] = biological target: T1, hNedd4L-WW3* (Homo sapiens, UniProt Q96PU5); test: Isothermal titration calorimetry, hNedd4L-WW3*; details: ITC, 25 °C, 10 mM sodium phosphate
T1 construct: The DNA fragment of the third WW domain of both proteins was amplified; GST (N, cleaved yes); made in house; host or cells: E. coli BL21(DE3)
Experimental: (§1) In order to compare the affinities between the U24 proteins and WW domains, the equilibrium dissociation constant (KD) for the interaction between each U24:Nedd4-WW domain pair tested above was determined using ITC. […] ITC experiments using these peptides as titrants were carried out on Nedd4-WW domains in 10 mM sodium phosphate, pH 7.4, at 25 °C. Control experiments in which the phosphate buffer was titrated into the protein solutions were also conducted to ensure the proteins were stable during the titration with peptide.
(§2) In order to find out whether electrostatic interactions play a role in the binding of the three U24 peptides tested here to the Nedd4-WW domains, a set of ITC experiments were performed as a function of increasing salt concentration, 0 mM, 100 mM and 500 mM, in 10 mM sodium phosphate, pH 7.4, at 25 °C, for rNedd4-WW3/4 and hNedd4L-WW3*.
(§3) Two cDNA clones containing human E3 ubiquitin-protein ligase Nedd4 (KIAA0093) and Nedd4-like protein (KIAA0439) were ordered from Kazusa DNA research institute (Chiba, Japan). The DNA fragment of the third WW domain of both proteins was amplified and inserted into BamHI and XhoI sites of pGEX-4T2 vector (GE Healthcare). The plasmids containing GST fusion proteins of the second and third WW domains (WW2 and WW3/4) of rNedd4 were kind gifts from Dr. Julie D. Forman-Kay (Hospital for Sick Children, Toronto). All plasmids were transformed into E. coli BL21(DE3) for expression at 25 °C for 16 hours using a final concentration of 400 μM IPTG. ^15N labelled protein was expressed in M9 media supplemented with ^15N labelled NH4Cl. The cells were harvested by centrifugation and stored in the −80 °C freezer until further use. The cell paste from approximately 600 mL culture was thawed on ice and resuspended in 10 mL PBS supplemented with 1% Triton X-100 (PBS/Triton buffer). Lysozyme, protease inhibitor and DNAse were added in the mixture. The mixture was incubated on ice for half an hour, then was lysed in an ice bath by sonication. After being centrifuged at 9,000 rpm for 1 hour, the supernatant was filtered using a 0.45 μm filter, and then applied to 2 mL of PBS washed Glutathione Sepharose 4B resin (GE Healthcare, GST 4B resin). The resin slurry with cell lysate was incubated for 2 hours at room temperature, and then washed with PBS/Triton buffer six times. The resin was collected by centrifugation at 600 × g for 5 minutes.
In order to obtain WW domains without the GST tag, the proteins were extracted and immobilized on GST 4B resin as described above. The resin was washed three times with PBS buffer, after the washing with PBS/Triton buffer. […]
After overnight dialysis, the cleaved Nedd4 WW domains in phosphate buffer, with different salt concentrations, were ready for use in ITC experiments. […]

[2] = biological target: T2, rNedd4-WW3/4 (Rattus norvegicus, UniProt Q62940); test: Isothermal titration calorimetry, rNedd4-WW3/4; details: ITC, 25 °C, 10 mM sodium phosphate
T2 construct: GST fusion proteins of the second and third WW domains (WW2 and WW3/4) of rNedd4; GST (N, cleaved yes); made in house; host or cells: E. coli BL21(DE3)
Experimental: as §1
Importantly, this is the tightest affinity characterized to date between a U24 peptide ligand and WW domains.
as §2, with “hNedd4L-WW3*. Affinities and molar binding enthalpies (ΔH) for each U24:WW-domain pair as a function of salt concentration are plotted in Supplementary Fig. 2 and Fig. 3c and d, respectively.” for “hNedd4L-WW3*.”
as §3
In order to obtain WW domains without the GST tag, the proteins were extracted and immobilized on GST 4B resin as described above. The resin was washed three times with PBS buffer, after the washing with PBS/Triton buffer. 3 mL PBS buffer and 150 units of thrombin (GE Healthcare) were added into the pelleted resin and the slurry was incubated at room temperature for 16 hours. The supernatant containing cleaved WW domains were collected on the second day by centrifugation. The residual thrombin in this fraction was removed using p-Aminobenzamidine-agarose (Sigma-Aldrich) and fresh GST 4B resin was used to remove the GST contaminants. The WW domain containing fraction was dialyzed at 4 °C against 2 L phosphate buffer (10 mM sodium phosphate, pH 7.4) using 2,000 MWCO dialysis membrane overnight for ITC or NMR experiments, or phosphate buffer with various salt concentrations (phosphate buffer with 100 mM or 500 mM NaCl) for ITC experiments.
After overnight dialysis, the cleaved Nedd4 WW domains in phosphate buffer, with different salt concentrations, were ready for use in ITC experiments. The dialysis buffer was kept as a sample-free buffer to measure the heats of dilution. […]

[3] = biological target: T3, rNedd4-WW2 (Rattus norvegicus, UniProt Q62940); test: Isothermal titration calorimetry, rNedd4-WW2; details: ITC, 25 °C, 10 mM sodium phosphate, pH 7.4; mean of three separate runs ± one SD
T3 construct: GST fusion proteins of the second and third WW domains (WW2 and WW3/4) of rNedd4; GST (N, cleaved yes); made in house; host or cells: E. coli BL21(DE3)
Experimental: as §1
(§4) Two cDNA clones containing human E3 ubiquitin-protein ligase Nedd4 (KIAA0093) and Nedd4-like protein (KIAA0439) were ordered from Kazusa DNA research institute (Chiba, Japan). The DNA fragment of the third WW domain of both proteins was amplified and inserted into BamHI and XhoI sites of pGEX-4T2 vector (GE Healthcare). […]
(§5) After overnight dialysis, the cleaved Nedd4 WW domains in phosphate buffer, with different salt concentrations, were ready for use in ITC experiments. […] The concentration of the sample was determined by the absorbance at 280 nm in 6 M Guanidine HCl on a UV-Vis spectrophotometer, and calculated using the theoretical extinction coefficient obtained from the ProtParam tool[51]. […] The peptide amounts were determined gravimetrically and calibrated according to the absorbance at 280 nm in 6 M Guanidine HCl. […]

[4] = biological target: T4, hNedd4-WW3* (Homo sapiens, UniProt P46934); test: Isothermal titration calorimetry, hNedd4-WW3*; details: ITC, 25 °C, 10 mM sodium phosphate, pH 7.4; mean of three separate runs ± one SD
T4 construct: The DNA fragment of the third WW domain of both proteins was amplified; GST (N, cleaved yes); made in house; host or cells: E. coli BL21(DE3)
Experimental: as §1, §4, §5

[5] = pH 7.4, mean of three separate runs ± one SD
[6] = pH 7.4, extra 100 mM NaCl, three runs
[7] = pH 7.4, extra 500 mM NaCl, three runs

T1 sequence (Q96PU5 497-530 limits assumed): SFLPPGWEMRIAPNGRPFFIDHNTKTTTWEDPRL
T2 sequence (Q62940 459-492 limits assumed): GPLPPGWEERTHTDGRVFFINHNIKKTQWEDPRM
T4 sequence (P46934 840-873 limits assumed): as the sequence (Q96PU5 497-530 limits assumed) above, with S1G, P5K, M9V, I11H counted along it
T3 sequence (Q62940 402-435 limits assumed): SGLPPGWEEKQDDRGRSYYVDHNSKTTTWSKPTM

| Molecule | Kd [1, 5] [µM] | Kd [2, 6] [µM] | Kd [2, 7] [µM] | Kd [2, 5] [µM] | Kd [3] [µM] | Kd [4] [µM] | Kd [1, 6] [µM] | Kd [1, 7] [µM] |
| --- | --- | --- | --- | --- | --- | --- | --- | --- |
| IKHEPENPPPYEEAM [Nogo-A, reference compound] | 4 ± 0.2 | – | – | – | – | – | – | – |
| MTHETPPPSYNDVML [U24-7] | – | 14.6 | 13.2 | 21 ± 0.5 | 87 ± 5 | 1.98 ± 0.04 | – | – |
| CSCC[C@H](N)C(=O)N[C@@H](CC(=O)O)C(=O)N1CCC[C@H]1C(=O)N1CCC[C@H]1C(=O)N[C@@H](CCCNC(=N)N)C(=O)N[C@H](C(=O)N1CCC[C@H]1C(=O)N1CCC[C@H]1C(=O)N1CCC[C@H]1C(=O)N[C@@H](CO)C(=O)N[C@@H](Cc1ccc(O)cc1)C(=O)N[C@@H](CO)C(=O)N[C@@H](CCC(=O)O)C(=O)N[C@H](C(=O)N[C@@H](CC(C)C)C(=O)O)C(C)C)[C@@H](C)OP(=O)(O)O [pU24-6A] | – | 12 | 9.5 | – | – | – | – | – |
| CSCC[C@H](N)C(=O)N[C@@H](CC(=O)O)C(=O)N1CCC[C@H]1C(=O)N1CCC[C@H]1C(=O)N[C@@H](CCCNC(=N)N)C(=O)N[C@H](C(=O)N1CCC[C@H]1C(=O)N1CCC[C@H]1C(=O)N1CCC[C@H]1C(=O)N[C@@H](CO)C(=O)N[C@@H](Cc1ccc(O)cc1)C(=O)N[C@@H](CO)C(=O)N[C@@H](CCC(=O)O)C(=O)N[C@H](C(=O)N[C@@H](CC(C)C)C(=O)O)C(C)C)[C@@H](C)O [U24-6A] | 6.3 ± 0.3 | 35.7 | 30.6 | – | 155 ± 12 | 9.7 ± 0.2 | 6.9 | 6.1 |
